Source: US6583122B2, “Nucleosides and oligonucleotides containing boron clusters” (Emory University, priority 1993, dated 2003)
Entries after “also recorded” stand apart in the source; their conditions may differ.

What was measured:
[1] = tested on: YMDD motif of HIV-1 RT; test: In vitro site directed mutagenesis of HIV-1 reverse transcriptase gene, transformation into E. coli and sequencing; assay type: cell-based; conditions: sequencing of mutants; for amino acid change: YMDD motif
Excerpt: Example 6 describes the in vivo mutation of the RT gene within the YMDD motif, incorporated into a proper vector in E. coli cells. The mutagenic oligonucleotide DNA target region is the conserved YMDD motif (nucleotides 5′ 2678 to 3′ 2689) of HIV-1 RT. The mutagenic oligonucleotides used were
The procedure for in vitro site directed mutagenesis used in this experiment was a modification of that used in the Altered Sites mutagenesis Kit #Q6210 (Promega Corp., Madison, Wis.). Briefly, oligonucleotides, 5′-AATACATGGA(CDU)GATTTGTAT-3′ (SEQ ID NO:1) and 5′-AATACATGG(CDU)(CDU)GATTTGTAT-3′ (SEQ ID NO:2), and a control, located on the putative catalytic active site for HIV-1 RT (5′-2676 to 3′-2696) were 5′ phosphorylated using T4 polynucleotide kinase. The reaction was terminated by heating to 70° C. for 10 min. The mutagenesis annealing reaction was performed by adding 0.05 pmol of pHIVALT-1 ssDNA, 0.25 pmol ampicillin repair oligonucleotide (supplied in the kit), 1.25 pmol of the 5′ phosphorylated mutagenic oligo, and an annealing buffer supplied in the kit in a final volume of 20 μL. The control oligonucleotide reactions for this experiment were done separately along with an added reaction that contained ampicillin repair oligo but no mutagenic oligo 5′-AATACATGGA(CDU)GATTTGTAT-3′ (SEQ ID NO: 1) and 5′-AATACATGG(CDU)(CDU) GATTTGTAT-3′ (SEQ ID NO:2) and control unmodified. The reactions were then heated to 70° C. for 5 min and allowed to cool to room temperature over a 15-20 min period. The annealing reactions were placed on ice and the following reagents were added: 3 μL 10× synthesis buffer (supplied in kit), 1 μL T4 DNA polymerase (10 U/μL ), 1 μL T4 DNA ligase (2 U/μL ), and 5 μL sterile dHO. The 30 μL reaction was incubated at 37° C. for 90 min to perform second strand synthesis and ligation. […]

[2] = tested on: calf spleen phosphodiesterase; test: Resistance to calf spleen phosphodiesterase; assay type: in vitro ADME; conditions: in words
[3] = tested on: d(A)12; test: Melting temperature (Tm) of duplexes with d(A)12; assay type: binding; conditions: for Tm: d(A)12 as complementary strand, 1:1, PIPES buffer at 120 mM NaCl
Procedure: Melting Temperature (Tm) Measurements. Samples for Tm measurements were prepared by the addition of concentrated stock solutions of the d(T)12 (18) or CDU modified d(T)12 (19-24) and d(A)12stock solution to 1.0 mL 10 mM 1,4-piperazine-bis-(ethane-sulfonic acid) (PIPES) buffer (pH 7.0) containing 100 mM NaCl, and 1 mM EDTA, in amounts to give a 1:1 ratio. Each strand was present at 40 μM. Molar extinction coefficients ε260 (per base) were calculated as following: 18: 8,150; d(A)12: 12,280; 19-24: 8,200. The samples were heated to 85° C. and cooled slowly to room temperature before melting. The insulated cell compartment of the UV spectrophotometer was continuously warmed from 0° C. to 85° C. at the rate 0.5° C. per minute. Samples were heated in quartz cuvettes fitted with a teflon stopper (1 cm path length). The absorption change at 260 nm was followed as a function of temperature, and Tm values were obtained from first derivative plots after the data were transferred to a Macintosh computer for visualization and analysis.

[4] = tested on: polyriboadenylic acid; test: Melting temperature (Tm) of duplexes with polyriboadenylic acid; assay type: binding; conditions: polyriboadenylic acid as target; PIPES buffer at 120 mM NaCl
[5] = tested on: Phosphodiesterase I (EC 3.1.4.1) type VIII from Crotalus durissus terrificus venom; test: Stability towards snake venom phosphodiesterase (SVPD) 3′-exonuclease, HPLC; assay type: in vitro ADME; conditions: for % remaining: SVPDE; for T½: degradation by SVPDE, disappearance of 12-mer (11-mer for CDU-modified oligos)
Procedure: Resistance of dodeca (thymidine phosphates) containing CDU (19-24) against phosphodiesterase I (EC 3.1.4.1): To 100 mM Tris-HCl buffer, pH 8.9 (90 μL) containing 20 mM MgCl2, 0.1 A260 ODU of oligonucleotide 19-24 (5 μL), 1.5×10-3 unit (5 μL) of phosphodiesterase was added. A blank with no enzyme, and a control reaction with d(T)12 were assayed simultaneously. Reactions were maintained at 37° C. for 10 minutes and then 50 μL aliquots were analyzed by HPLC under conditions described above.
The replacement of all natural phosphodiester linkages within oligonucleotide chain by methylphosphonate ones is an example of modifications that ensure complete stability of the oligonucleotide towards exo- and endonucleases. To test the resistance of CDU-oligonucleotides towards 3′-exonucleolytic activity (hydrolysis of the oligonucleotide from 3′-end), snake venom phosphodiesterase (SVPD) from Crotalus durissus terrificus was used. It was discovered that these oligonucleotides are remarkably stable to 3′-exonucleases if the CDU residue is incorporated in the 3′- or both 3′- and 5′-end. The oligonucleotide bearing both 3′- and 5′-modifications (24) was also resistant to SVPD and calf spleen phosphodiesterase.
The half-life (T½) of 3′-CDU-, 3′,5′-CDU- and 3′CDU2-oligonucleotides were determined by kinetic study of their degradation by SVPDE (snake venom phosphodiesterase). Aliquots of enzymatic reaction (0, 5, 10, 20, 40, 80 and 240 minutes) were analyzed by HPLC. Calculations of half life time were based on the disappearance of 12-mer (or 11-mer in the case of CDU-modified oligos) after standardization with 2′-deoxycytidine used as internal standard.

5′-AATACATGG(CDU)(CDU)GATTTGTAT-3′ [RL-2]
amino acid change [1]: YMDD to YRVD

5′-AATACATGGA(CDU)GATTTGTAT-3′ [RL-1]
clones in which the mutation occurred next to the base opposite to CDU on the complimentary strand [1]: 60%
amino acid change [1]: YMDD to YMVD; also recorded: YMDD to YMGD

5′CDUd(T)9CDUd(T) [Oligomer 24]
resistance to calf spleen phosphodiesterase [2]: resistant
Tm [3]: 20.0 °C
Tm [4]: 17.0 °C
% remaining ([5]; time 0 min): 100%
% remaining ([5]; time 5 min): 56.2%
% remaining ([5]; time 10 min): 38.1%
% remaining ([5]; time 40 min): 14.8%
T½ [5]: 5.06 min
resistance towards 3′-exonucleolytic activity (SVPD) ([5]; in words): resistant

5′CDUd(T)11 [Oligomer 19]
Tm ([3]; listed as 19): 28.0 °C
Tm ([3]; listed as CDU(dT)11): 28.8 °C

5′d(T)6CDUd(T)5 [Oligomer 21]
Tm [3]: 15.2 °C

5′d(T)9(CDU)2d(T) [Oligomer 23]
Tm [3]: 15.3 °C
Tm [4]: 10.0 °C
% remaining ([5]; time 0 min): 100%
% remaining ([5]; time 5 min): 82.0%
% remaining ([5]; time 20 min): 80.0%
% remaining ([5]; time 40 min): 78.9%
% remaining ([5]; time 80 min): 54.0%
% remaining ([5]; time 240 min): 10.5%
T½ [5]: 76.2 min

5′d(T)10CDUd(T) [Oligomer 22]
difference in Tm ([3]; between oligonucleotides 20 and 22): 7-8 °C
Tm [3]: 20.5 °C
% remaining ([5]; time 0 min): 100%
% remaining ([5]; time 5 min): 54.8%
% remaining ([5]; time 10 min): 44.0%
% remaining ([5]; time 20 min): 38.3%
% remaining ([5]; time 40 min): 23.2%
% remaining ([5]; time 80 min): 11.0%
T½ [5]: 6.7 min

5′d(T)CDUd(T)10 [Oligomer 20]
Tm [3]: 27.2 °C
Tm [4]: 25.7 °C

d(T)12 [Oligomer 18, reference compound]
Tm [3]: 29.0 °C
Tm [4]: 30.0 °C
% remaining ([5]; time 0 min): 100%
% remaining ([5]; time 5 min): 9.1%
% remaining ([5]; time 10 min): 2.6%
T½ [5]: 0.5 min
